1 molecule from PMC4804635 (European journal of pharmacology, 2016) can be followed below.

One assay deals with ACE in human CD34+ cells (Homo sapiens, UniProt P12821). Kind of assay: ACE activity assay in human CD34+ cell lysates.
The target in assay [1] is ACE2 in human CD34+ cells (Homo sapiens, UniProt Q9BYF1). Kind of assay: ACE2 activity assay in human CD34+ cell lysates. The note with it: for Imax at ACE2 in human CD34+ cells: cell lysate, 4 h, n=6.
A further assay addresses ACE2 in murine heart (Mus musculus, UniProt Q8R0I0). Kind of assay: ACE2 activity assay in murine heart homogenate. The class given is biochemical.
Assay [2] has as its target Recombinant Human ACE (rhACE) (Homo sapiens, UniProt P12821). Kind of assay: ACE activity assay with recombinant human ACE. Type of assay: biochemical.
The target in assay [3] is Recombinant Human ACE2 (rhACE2) (Homo sapiens, UniProt Q9BYF1). The assay is described as follows: ACE2 activity assay with recombinant human ACE2. Type of assay: biochemical.
For another assay, the target named is T1, Murine MNC ACE (Mus musculus, UniProt P09470).
T1 sequence (P09470 35-1312): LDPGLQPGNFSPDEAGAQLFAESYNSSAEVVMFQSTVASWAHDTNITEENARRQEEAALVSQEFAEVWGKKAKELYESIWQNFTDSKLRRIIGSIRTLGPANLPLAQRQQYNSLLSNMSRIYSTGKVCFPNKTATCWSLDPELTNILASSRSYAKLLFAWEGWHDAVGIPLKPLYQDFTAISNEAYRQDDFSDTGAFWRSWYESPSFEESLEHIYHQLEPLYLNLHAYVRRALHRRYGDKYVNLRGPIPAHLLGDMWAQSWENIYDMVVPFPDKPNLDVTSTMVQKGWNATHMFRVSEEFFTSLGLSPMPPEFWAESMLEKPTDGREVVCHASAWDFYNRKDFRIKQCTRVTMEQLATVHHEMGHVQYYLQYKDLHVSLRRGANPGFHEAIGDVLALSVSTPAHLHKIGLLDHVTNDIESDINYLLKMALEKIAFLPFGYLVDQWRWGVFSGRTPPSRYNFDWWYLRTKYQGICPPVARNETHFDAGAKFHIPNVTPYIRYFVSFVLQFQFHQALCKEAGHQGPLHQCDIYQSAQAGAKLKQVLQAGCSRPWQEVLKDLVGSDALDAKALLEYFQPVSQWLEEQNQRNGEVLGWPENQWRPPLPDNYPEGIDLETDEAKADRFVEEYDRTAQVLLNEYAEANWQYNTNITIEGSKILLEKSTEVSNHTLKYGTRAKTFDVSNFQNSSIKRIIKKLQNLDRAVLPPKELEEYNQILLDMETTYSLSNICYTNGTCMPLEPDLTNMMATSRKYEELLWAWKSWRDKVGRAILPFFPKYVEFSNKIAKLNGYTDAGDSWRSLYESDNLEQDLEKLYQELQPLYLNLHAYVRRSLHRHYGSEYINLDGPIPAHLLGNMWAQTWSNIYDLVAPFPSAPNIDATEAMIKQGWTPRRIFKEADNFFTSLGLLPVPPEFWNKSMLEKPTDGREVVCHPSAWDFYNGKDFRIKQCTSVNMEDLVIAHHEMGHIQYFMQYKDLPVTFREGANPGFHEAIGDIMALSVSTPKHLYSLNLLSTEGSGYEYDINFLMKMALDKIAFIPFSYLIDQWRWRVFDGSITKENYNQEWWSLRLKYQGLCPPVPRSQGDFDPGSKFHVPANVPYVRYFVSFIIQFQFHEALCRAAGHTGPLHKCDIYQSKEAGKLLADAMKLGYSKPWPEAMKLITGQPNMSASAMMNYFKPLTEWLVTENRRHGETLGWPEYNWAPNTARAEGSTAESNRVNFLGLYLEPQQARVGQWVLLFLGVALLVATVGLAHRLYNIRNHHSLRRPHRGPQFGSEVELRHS
Kind of assay: ACE activity assay in murine mononuclear cell lysates.

In a further assay the target is T2, ACE in murine heart (Mus musculus, UniProt P09470).
T2 sequence (P09470 35-1312): T1 sequence (P09470 35-1312)
The assay is described as follows: ACE activity assay in murine heart homogenate. Type of assay: biochemical.

The next assay addresses Human MNC ACE2 (Homo sapiens, UniProt Q9BYF1). Kind of assay: ACE2 activity assay in human mononuclear cell lysates. To be noted: for Imax at ACE2 in human MNCs: cell lysate 10 μg protein, 4 h.
For the next assay, the target named is Human MNC ACE (Homo sapiens, UniProt P12821). Kind of assay: ACE activity assay in human mononuclear cell lysates. The note with it: cell lysate 10 μg protein, 4 h.
Another assay has as its target Murine MNC ACE2 (Mus musculus, UniProt Q8R0I0). Kind of assay: ACE2 activity assay in murine mononuclear cell lysates.
[4] abbreviates: recombinant enzyme, 50 μM substrate, pH 6.5, 1 h.

Chain of Recombinant Human ACE2 (rhACE2) (Q9BYF1 18-805): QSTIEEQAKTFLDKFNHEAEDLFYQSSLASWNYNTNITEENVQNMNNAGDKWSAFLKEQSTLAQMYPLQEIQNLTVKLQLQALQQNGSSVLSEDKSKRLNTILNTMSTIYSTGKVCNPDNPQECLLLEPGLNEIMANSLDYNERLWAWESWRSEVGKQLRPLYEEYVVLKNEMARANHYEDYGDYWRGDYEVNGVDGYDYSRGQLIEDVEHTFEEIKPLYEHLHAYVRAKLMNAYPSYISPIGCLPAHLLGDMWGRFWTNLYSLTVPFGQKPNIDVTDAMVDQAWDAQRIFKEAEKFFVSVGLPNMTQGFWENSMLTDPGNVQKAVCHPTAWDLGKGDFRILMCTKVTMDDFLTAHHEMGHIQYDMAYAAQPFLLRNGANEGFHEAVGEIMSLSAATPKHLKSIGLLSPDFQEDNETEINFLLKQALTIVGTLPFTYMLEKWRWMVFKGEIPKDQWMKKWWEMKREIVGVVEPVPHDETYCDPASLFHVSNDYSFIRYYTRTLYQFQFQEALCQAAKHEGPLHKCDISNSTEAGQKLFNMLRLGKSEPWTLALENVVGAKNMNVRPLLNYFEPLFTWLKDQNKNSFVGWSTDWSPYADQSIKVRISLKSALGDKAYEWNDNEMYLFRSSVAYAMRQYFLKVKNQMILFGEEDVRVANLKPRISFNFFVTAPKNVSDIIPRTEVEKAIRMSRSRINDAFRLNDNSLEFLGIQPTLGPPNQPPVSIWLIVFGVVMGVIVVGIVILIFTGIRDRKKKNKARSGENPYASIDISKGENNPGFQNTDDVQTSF
Chain of Human MNC ACE2 (Q9BYF1 18-805): as above
Chain of ACE2 in human CD34+ cells (Q9BYF1 18-805): as above
Chain of ACE in human CD34+ cells (P12821 30-1306): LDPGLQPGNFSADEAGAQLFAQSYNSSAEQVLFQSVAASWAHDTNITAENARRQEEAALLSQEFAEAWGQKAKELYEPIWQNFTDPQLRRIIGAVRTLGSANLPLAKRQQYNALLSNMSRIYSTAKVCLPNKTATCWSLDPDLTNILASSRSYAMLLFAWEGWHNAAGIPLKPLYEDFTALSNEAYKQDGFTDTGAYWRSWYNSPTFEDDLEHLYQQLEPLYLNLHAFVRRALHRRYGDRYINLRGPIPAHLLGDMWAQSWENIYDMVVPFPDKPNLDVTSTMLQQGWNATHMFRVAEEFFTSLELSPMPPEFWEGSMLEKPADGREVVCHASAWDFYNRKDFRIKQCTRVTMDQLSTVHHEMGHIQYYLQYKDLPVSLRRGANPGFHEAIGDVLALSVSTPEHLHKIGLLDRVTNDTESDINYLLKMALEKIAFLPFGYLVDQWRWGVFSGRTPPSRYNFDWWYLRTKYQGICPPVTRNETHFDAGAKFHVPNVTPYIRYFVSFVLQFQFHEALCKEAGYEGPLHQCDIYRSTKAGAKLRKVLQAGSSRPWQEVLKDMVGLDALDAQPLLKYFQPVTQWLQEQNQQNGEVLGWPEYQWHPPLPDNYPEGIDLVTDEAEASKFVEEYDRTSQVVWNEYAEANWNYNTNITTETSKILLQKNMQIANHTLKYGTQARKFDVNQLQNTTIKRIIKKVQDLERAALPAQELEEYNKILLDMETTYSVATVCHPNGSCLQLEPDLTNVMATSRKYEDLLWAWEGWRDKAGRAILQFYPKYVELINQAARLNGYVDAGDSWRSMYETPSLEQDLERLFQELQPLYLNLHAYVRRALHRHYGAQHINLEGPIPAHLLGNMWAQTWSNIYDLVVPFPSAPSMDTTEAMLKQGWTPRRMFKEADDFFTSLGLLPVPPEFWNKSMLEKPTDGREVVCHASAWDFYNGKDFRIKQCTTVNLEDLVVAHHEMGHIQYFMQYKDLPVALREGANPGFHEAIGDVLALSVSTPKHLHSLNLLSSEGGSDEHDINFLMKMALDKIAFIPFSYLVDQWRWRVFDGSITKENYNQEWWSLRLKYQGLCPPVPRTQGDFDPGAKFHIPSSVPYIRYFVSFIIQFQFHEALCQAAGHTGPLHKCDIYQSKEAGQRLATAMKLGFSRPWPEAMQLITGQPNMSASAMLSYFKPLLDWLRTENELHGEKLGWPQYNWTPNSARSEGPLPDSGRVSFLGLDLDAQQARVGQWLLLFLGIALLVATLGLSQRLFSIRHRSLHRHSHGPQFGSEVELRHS
Chain of Recombinant Human ACE (rhACE) (P12821 30-1306): as above
Chain of Murine MNC ACE2 (Q8R0I0 18-805): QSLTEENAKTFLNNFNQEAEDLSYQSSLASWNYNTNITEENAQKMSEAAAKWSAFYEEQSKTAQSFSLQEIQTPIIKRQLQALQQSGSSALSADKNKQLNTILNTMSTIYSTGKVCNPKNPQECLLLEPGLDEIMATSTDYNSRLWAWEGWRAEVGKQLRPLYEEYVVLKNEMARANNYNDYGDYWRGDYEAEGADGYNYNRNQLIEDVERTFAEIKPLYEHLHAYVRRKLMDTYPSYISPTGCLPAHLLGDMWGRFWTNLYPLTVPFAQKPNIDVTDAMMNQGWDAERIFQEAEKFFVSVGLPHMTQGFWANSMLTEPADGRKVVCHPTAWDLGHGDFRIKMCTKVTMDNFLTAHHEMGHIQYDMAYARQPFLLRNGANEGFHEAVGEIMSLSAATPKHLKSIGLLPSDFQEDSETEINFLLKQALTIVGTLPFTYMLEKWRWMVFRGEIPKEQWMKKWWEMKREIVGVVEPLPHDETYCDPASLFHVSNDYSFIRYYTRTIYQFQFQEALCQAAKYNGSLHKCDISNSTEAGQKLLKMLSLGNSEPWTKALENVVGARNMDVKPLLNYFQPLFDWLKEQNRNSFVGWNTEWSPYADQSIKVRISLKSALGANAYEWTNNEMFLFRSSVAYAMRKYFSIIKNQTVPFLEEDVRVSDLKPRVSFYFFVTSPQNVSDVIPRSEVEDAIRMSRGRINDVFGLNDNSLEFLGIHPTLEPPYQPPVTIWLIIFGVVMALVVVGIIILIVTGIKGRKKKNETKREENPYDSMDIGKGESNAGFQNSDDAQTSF
Chain of Human MNC ACE (P12821 30-1306): as the sequence (P12821 30-1306) above

For the molecule `CC(C)C[C@H](N[C@@H](Cc1cncn1Cc1cc(Cl)cc(Cl)c1)C(=O)O)C(=O)O` [isomer B, (2S)-2-[[(2S)-3-[3-[(3,5-dichlorophenyl)methyl]imidazol-4-yl]-1-hydroxy-1-oxopropan-2-yl]amino]-4-methylpentanoic acid], the IC50 is 12600 nM against ACE in human CD34+ cells; 316 nM in assay [1]; 251 nM against ACE2 in murine heart; 10 ± 6 nM in assay [3] (IC50, Recombinant Human ACE2); 20000 nM on Murine MNC ACE; 63100 nM against ACE in murine heart. Further, the 50% inhibitory concentration (IC50) was 500 ± 30 nM on Human MNC ACE2 (IC50, Human ACE2 (human MNCs)) and 79.4 nM against Murine MNC ACE2 (pIC50 at ACE2 in murine MNCs, cell lysate, 4 h). Moreover, at ACE in human CD34+ cells (cell lysate, 4 h, n=6), the “Imax at ACE in human CD34+ cells” value came to 19±2%. The “Imax at ACE2 in human CD34+ cells” value is given as 38±4% in assay [1] and 38% in [1] (listed as MLN-4760-B). The inhibition at 10 µM in assay [2] (read-out: inhibition of rhACE activity) worked out at 43%. Besides, in [2] (setting [4]), the “Imax at rhACE” value was 46±1%. The Ki in assay [3] was 40 ± 5 nM; at Human MNC ACE2, 200 ± 10 nM; at Murine MNC ACE2, 2100 ± 200 nM. Moreover, the “Maximum inhibition (Imax) of rhACE2” value in assay [3] (setting [4]) came out at 80±3%. The “Imax at ACE2 in human MNCs” value at Human MNC ACE2 stood at 63±2%; on Human MNC ACE2 (listed as MLN-4760-B), 63%. In addition, the “Imax at ACE in human MNCs” value at Human MNC ACE came to 34±1%.
